Two molecules from ChEMBL document CHEMBL1138833, “Enantioselective synthesis and biological activity of (3S,4R)- and (3S,4S)-3-hydroxy-4-hydroxymethyl- 4-butanolides in relation to PGE2” (J Med Chem, 2004) can be followed below.

Experiment [1] addresses Prostaglandin E2 receptor EP2 subtype (Homo sapiens) (UniProt P43116). Briefly: The percentage decrease in the binding of [3H]PGE2, in the presence of 1000 uM of compound.
Experiment [2] has the same target. Kind of experiment: The percentage decrease in the binding of [3H]PGE2, in the presence of 125 uM of compound.

Chain of Prostaglandin E2 receptor EP2 subtype (Homo sapiens) (P43116 whole entry): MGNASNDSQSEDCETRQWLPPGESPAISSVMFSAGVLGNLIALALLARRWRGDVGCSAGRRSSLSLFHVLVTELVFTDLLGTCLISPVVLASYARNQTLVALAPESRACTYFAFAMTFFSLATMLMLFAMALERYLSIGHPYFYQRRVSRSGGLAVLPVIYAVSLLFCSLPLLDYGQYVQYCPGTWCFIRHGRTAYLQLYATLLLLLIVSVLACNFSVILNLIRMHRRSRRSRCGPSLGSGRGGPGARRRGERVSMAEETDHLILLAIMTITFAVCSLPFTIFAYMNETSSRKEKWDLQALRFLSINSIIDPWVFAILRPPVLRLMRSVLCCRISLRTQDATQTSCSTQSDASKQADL

As for `O=C1C[C@H](O)[C@H](CO)O1`, the Decrease in experiment [1] stood at 73%.

As for `O=C1C[C@H](O)[C@@H](CO)O1`, the Decrease turned out to be 33% in experiment [1] and 78% in experiment [2].
